Molecules are shown by their SMILES. Converted amounts (≈) assume the structure as drawn.

For the first data set, the target named is T1, Dihydrofolate reductase (Mycobacterium tuberculosis, UniProt P9WNX1).
T1 sequence (P9WNX1 whole entry): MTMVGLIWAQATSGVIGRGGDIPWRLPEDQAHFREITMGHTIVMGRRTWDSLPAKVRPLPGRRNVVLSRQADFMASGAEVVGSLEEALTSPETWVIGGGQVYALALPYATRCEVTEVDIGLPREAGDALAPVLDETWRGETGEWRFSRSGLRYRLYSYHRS
The data set is described as follows: Inhibition of Mycobacterium tuberculosis H37Rv DHFR expressed in Escherichia coli BL21(DE3) assessed as reduction in consumption of NADPH using DHF as substrate preincubated for 1 min followed by DHF addition and measured for 2 mins by spectrophotometric method.
Details: not given
In general, IC50 refers to the concentration that inhibits the measured activity by half. Take `CC(=O)c1c(C)n(Cc2ccccc2)c2ccc(OCc3cn(-c4cccc(Cl)c4)nn3)cc12`: the IC50 came out at 43.1 µM.

Take `CC(=O)c1c(C)n(Cc2ccccc2)c2ccc(OCCCC(=O)O)cc12`: the IC50 stood at 25 µM.

A further data set deals with T2, Dihydrofolate reductase (Homo sapiens, UniProt P00374).
T2 sequence (P00374 whole entry): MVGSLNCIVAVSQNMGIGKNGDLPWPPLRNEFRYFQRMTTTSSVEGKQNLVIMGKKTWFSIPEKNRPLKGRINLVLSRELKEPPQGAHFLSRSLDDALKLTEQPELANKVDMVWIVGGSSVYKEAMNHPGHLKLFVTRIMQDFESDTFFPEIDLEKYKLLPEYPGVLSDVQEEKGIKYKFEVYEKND
The data set is described as follows: Inhibition of human DHFR assessed as reduction in consumption of NADPH using DHF as substrate preincubated for 1 min followed by DHF addition and measured for 2 mins by spectrophotometric method.
Details: not given
Turning to `CC(=O)c1c(C)n(Cc2ccccc2)c2ccc(OCc3cn(-c4cccc(Cl)c4)nn3)cc12`, the 50% inhibitory concentration (IC50) is 180 µM.

The next data set has as its system DHFR (human versus Mycobacterium tuberculosis H37Rv). The data set is described as follows: Selectivity index, ratio of IC50 for human DHFR to IC50 for Mycobacterium tuberculosis H37Rv DHFR expressed in Escherichia coli BL21(DE3). It counts as toxicity. The settings on record: human and Mycobacterium tuberculosis H37Rv; read-out: Ratio IC50.
Turning to `CC(=O)c1c(C)n(Cc2ccccc2)c2ccc(OCc3cn(-c4cccc(Cl)c4)nn3)cc12`, the selectivity ratio is 4.17.

For another data set, the system named is Mycobacterium tuberculosis. The data set is described as follows: microbe, parasite or virus in culture. The settings on record: H37Rv ATCC 27294, 168 h.
Description: Antitubercular activity against Mycobacterium tuberculosis H37Rv ATCC 27294 after 7 days by microplate alamar blue method
`CN(Cc1cnc2nc(N)nc(N)c2n1)c1ccc(C(=O)N[C@@H](CCC(=O)O)C(=O)O)cc1` [METHOTREXATE] gave an MIC of 3.38 µM (≈ 1.54 µg/mL). Still for that read-out and setting: the figure for `CCOC(=O)c1c(C)n(Cc2ccccc2)c2ccc(OCc3cn(-c4ccc(F)cc4)nn3)cc12` is 51.6 µM (≈ 25 µg/mL). In the case of `CC(=O)c1c(C)n(Cc2ccccc2)c2ccc(OCc3cn(-c4ccc(C)c(C)c4)nn3)cc12`, the MIC was 53.8 µM (≈ 25 µg/mL).

Molecule `COc1ccccc1-n1cc(COc2ccc3c(c2)c(C(C)=O)c(C)n3Cc2ccccc2)nn1` registered an MIC of 53.6 µM (≈ 25 µg/mL).

In the case of `CCOC(=O)c1c(C)n(Cc2ccccc2)c2ccc(OCc3cn(-c4ccc(Br)cc4)nn3)cc12`, the MIC amounted to 45.9 µM (≈ 25.1 µg/mL). In the case of `CCc1ccc(-n2cc(COc3ccc4c(c3)c(C(C)=O)c(C)n4Cc3ccccc3)nn2)cc1`, the MIC was determined as 26.9 µM (≈ 12.5 µg/mL). Turning to `CC(=O)c1c(C)n(Cc2ccccc2)c2ccc(OCc3cn(-c4ccc(C#N)cc4)nn3)cc12`, the MIC was found to be 54.2 µM (≈ 25 µg/mL).

Consider `CCOC(=O)c1c(C)n(Cc2ccccc2)c2ccc(OCc3cn(-c4ccc(C(F)(F)F)cc4)nn3)cc12`, for which the MIC is 46.8 µM (≈ 25 µg/mL).

`CCOC(=O)c1c(C)n(Cc2ccccc2)c2ccc(OCc3cn(-c4ccc(CC)cc4)nn3)cc12` gave an MIC of 50.6 µM (≈ 25 µg/mL).

As for `NNC(=O)c1ccncc1` [ISONIAZID], the MIC worked out at 0.73 µM (≈ 0.1 µg/mL). The same measure, in the same setting: the figure for `CO[C@H]1/C=C/O[C@@]2(C)Oc3c(C)c(O)c4c(O)c(c(/C=N/N5CCN(C)CC5)c(O)c4c3C2=O)NC(=O)/C(C)=C\C=C\[C@H](C)[C@H](O)[C@@H](C)[C@@H](O)[C@@H](C)[C@H](OC(C)=O)[C@@H]1C` [RIFAMPIN] is 0.25 µM (≈ 0.206 µg/mL); for `CC(=O)c1c(C)n(Cc2ccccc2)c2ccc(OCc3cn(-c4cccc(Cl)c4)nn3)cc12` it is 6.64 µM (≈ 3.13 µg/mL). Turning to `CC(=O)c1c(C)n(Cc2ccccc2)c2ccc(OCc3cn(-c4ccc([N+](=O)[O-])cc4)nn3)cc12`, the MIC turned out to be 12.9 µM (≈ 6.21 µg/mL). On the same count and under the same terms, the figure for `CC(=O)c1c(C)n(Cc2ccccc2)c2ccc(OCc3cn(-c4ccc(C)cc4)nn3)cc12` is 55.5 µM (≈ 25 µg/mL). The same measure, in the same setting: the figure for `CCOC(=O)c1c(C)n(Cc2ccccc2)c2ccc(OCc3cn(-c4cccc(Cl)c4)nn3)cc12` is 50.2 µM (≈ 25.1 µg/mL); for `CC[C@@H](CO)NCCN[C@@H](CC)CO` [ETHAMBUTOL] it is 16.5 µM (≈ 3.37 µg/mL). Still for that read-out and setting: the figure for `CC(=O)c1c(C)n(Cc2ccccc2)c2ccc(OCc3cn(-c4ccc(Cl)cc4)nn3)cc12` is 53.1 µM (≈ 25 µg/mL); for `O=C(O)c1cn(C2CC2)c2cc(N3CCNCC3)c(F)cc2c1=O` [CIPROFLOXACIN] it is 4.7 µM (≈ 1.56 µg/mL). In turn, `CCOC(=O)c1c(C)n(Cc2ccccc2)c2ccc(OCc3cn(-c4ccccc4OC)nn3)cc12` registered an MIC of 50.4 µM (≈ 25 µg/mL). On to `CCOC(=O)c1c(C)n(Cc2ccccc2)c2ccc(OCc3cn(-c4ccc(C)cc4)nn3)cc12`, for which the MIC came out at 26 µM (≈ 12.5 µg/mL). The same measure, in the same setting: the figure for `CC(=O)c1c(C)n(Cc2ccccc2)c2ccc(OCc3cn(-c4ccc(F)cc4)nn3)cc12` is 55 µM (≈ 25 µg/mL); for `CCOC(=O)c1c(C)n(Cc2ccccc2)c2ccc(OCc3cn(-c4ccc([N+](=O)[O-])cc4)nn3)cc12` it is 48.9 µM (≈ 25 µg/mL); for `CCOC(=O)c1c(C)n(Cc2ccccc2)c2ccc(OCc3cn(-c4ccc(C#N)cc4)nn3)cc12` it is 12.7 µM (≈ 6.25 µg/mL). `CC(=O)c1c(C)n(Cc2ccccc2)c2ccc(OCc3cn(-c4ccc(C(F)(F)F)cc4)nn3)cc12` had an MIC of 49.5 µM (≈ 25 µg/mL).

The values are drawn from ChEMBL document CHEMBL4480432, “Expansion of a novel lead targeting M. tuberculosis DHFR as antitubercular agents” (Bioorg Med Chem, 2019).
